Assay results reported in ChEMBL document CHEMBL1151639, “Antibacterial sesquiterpene aryl esters from Armillaria mellea” (J Nat Prod, 1985).
The source made the active and inactive calls. No cut-off for these calls is given here.

How the values were obtained:
Type in all cases: functional, organism-based
[1] = system: Bacillus subtilis; test: Antibacterial activity against Bacillus subtilis 5262 ATCC 6633
[2] = system: Escherichia coli; test: Antibacterial activity against Escherichia coli
[3] = system: Pseudomonas aeruginosa; test: Antibacterial activity against Pseudomonas aeruginosa
[4] = system: Staphylococcus aureus; test: Antibacterial activity against Staphylococcus aureus 209P ATCC 53156

CO[C@]12C(C=O)=C[C@@H]3CC(C)(C)C[C@@H]3[C@@]1(C)C[C@H]2OC(=O)c1c(C)cc(O)cc1O
Activity [1]: Active
Activity [2]: inactive
Activity [3]: inactive
Activity [4]: Active
